Assay results taken from patent US6713506B2, “Tea polyphenol esters and analogs thereof for cancer prevention and treatment” (University of South Florida, priority 2000, dated 2004).
“Also recorded” adds a separate entry of the source.

How the values were obtained:
p27 in MCF-7 tumors = experiment: Nude mice bearing human breast MCF-7 tumors, biochemical end points; assay type: in vivo; settings: mice pre-fed or injected into the tumors
Description: Treatment of drinking water with green tea, a green tea polyphenol extract or EGCG, or direct injection into tumors of a solution containing a green tea polyphenol extract or EGCG, inhibits breast or other tumor growth in nude mice. In (a) it is shown that antitumor activity of tea polyphenols correlates to their potency to inhibit the proteasome activity. All mice receive a 90-day slow-release subcutaneous (s.c.) estrogen pellet (Innovative Research) in the anterior flank 7 days before tumor inoculation. In Experiment 1, mice (5 per group) are pre-fed with a solution of EGCG, EGC, ECG, EC, a green tea extract (1, 10, and 50 mg/kg) or water three times per week for 2 weeks, followed by s.c. implanting human breast MCF-7 tumor cells in nude mice above the right and left flanks (10^7 cells per flank). When tumors in the control group reach ˜1000 mm^3 the experiment is terminated. […] Evaluation of the antitumor activity of tea polyphenols is determined by measuring the change in tumor size of the treated group compared to the control group. […] Levels of p27 and Bax protein in tumor tissues are measured by Western blotting and immunohistochemistry. […] Bax localization (by immunohistochemistry), processing of caspase-3, cleavage of PARP (by Western blotting) and apoptosis (by TUNEL) are then measured. […]

[1] = molecular target: T1, trypsin-like activity in living Jurkat T cells (Homo sapiens, UniProt Q99436); experiment: Proteasome trypsin-like activity in living Jurkat T cells; assay type: cell-based
T1 construct: endogenous in cells; host or cells: Jurkat T cells (whole cell extract or intact cells)
Experimental: (§1) Inhibition of the proteasome activity in living cells by tea polyphenols—To measure inhibition of the chymotrypsin-like activity in living tumor cells, Jurkat T (1×10^5 cells/ml/well), MCF7 or PC-3 cells (1×10^4 cells/ml/well) are cultured in 24-well plates. These cells are first incubated for 12 h with various concentrations of EGCG, EGC, β-lactone or LLnL, followed by an additional 2 h-incubation with fluorogenic peptide substrates, Suc-Leu-Leu-Val-Tyr-AMC for the chymotrypsin-like activity and Z-Gly-Gly-Arg-AMC for the trypsin-like activity. After that, cell medium (200 μl per sample) is collected and used for measurement of free AMCs.

[2] = molecular target: T2, proteasomal trypsin-like activity in Jurkat T cell extract (Homo sapiens, UniProt Q99436); experiment: Proteasome trypsin-like activity in Jurkat T cell free extract; assay type: biochemical; settings: EGCG 10 μM
T2 construct: endogenous in cells; host or cells: Jurkat T cells (whole cell extract or intact cells)
Experimental: (§2) Inhibition of the proteasome activity with cell free extracts by tea polyphenols—The whole cell extract (3.5 μg) from Jurkat T cells is incubated for 90 min at 37° C. with 20 μM of a fluorogenic peptide substrate, Suc-Leu-Leu-Val-Tyr-AMC (for the chymotrypsin-like activity), Z-Leu-Leu-Glu-AMC [peptidyl-glutamyl peptide-hydrolyzing (PGPH) activity; Calbiochem], and Z-Gly-Gly-Arg-AMC (for the trypsin-like activity; Bachem), in 100 μl of the assay buffer with or without 10 μM EGCG or EGC. The hydrolyzed AMCs are quantified as described above.

[3] = system: LNCaP prostate cancer cells; experiment: Cell cycle analysis by flow cytometry, LNCaP cells; assay type: cell-based, human; settings: 10 μM, 36 h
Experimental: (§3) FIG. 6. Cell cycle analysis. Asynchronous Jurkat, LNCaP, WI-38, and VA-13 cells are treated with 10 μM EGCG and harvested at the time points indicated. Cells are prepared and analyzed by flow cytometry as described in the The Materials and Methods section of Example 1. Growth arrest is determined by the increase in the percentage of G1 population.
(§4) Cell cycle analysis—Cell cycle analysis based on DNA content is performed as follows. Cells are harvested, counted and washed twice with PBS. Cells (5×10^6 ) are then suspended in 0.5 ml PBS, pipetted and fixed in 5 ml of 70% ethanol for at least 2 h at −20° C. Cells are centrifuged, resuspended in 1 ml of propidium iodide staining solution (50 μg propidium iodide, 100 units RNase A and 1 mg glucose per ml PBS) and incubated at room temperature for 30 min. The cells are then analyzed with FACScan (Becton Dickinson Immunocytometry, CA.), ModFit LT and WinMDI V.2.8 cell cycle analysis software (Verity Software, Topsham, Me.). The cell cycle distribution is shown as the percentage of cells containing G1, S, G2, and M DNA judged by propidium iodide staining.

[4] = molecular target: T3, proteasomal PGPH activity in Jurkat T cell extract (Homo sapiens, UniProt P28072); experiment: Proteasome PGPH activity in Jurkat T cell free extract; assay type: biochemical; settings: EGCG 10 μM
T3 construct: endogenous in cells; host or cells: Jurkat T cell whole cell extract
Experimental: as §2

[5] = system: SV-40-transformed WI-38 cells (VA-13); experiment: Cell cycle analysis by flow cytometry, VA-13 cells; assay type: cell-based, human; settings: VA-13, 10 μM
Experimental: as §3, §4

normal human WI-38 cells = experiment: Cell cycle analysis by flow cytometry, WI-38 cells; assay type: cell-based; settings: WI-38, 10 μM
Experimental: as §3, §4

[6] = molecular target: T4, chymotrypsin-like activity in living prostate (PC-3) cancer cells (Homo sapiens, UniProt P28074); experiment: Proteasome chymotrypsin-like activity in living PC-3 cells; assay type: cell-based
T4 construct: endogenous in cells; host or cells: PC-3 cells (intact)
Experimental: as §1
(b) The peptide substrate for the proteasomal chymotrypsin-like activity, Suc-Leu-Leu-Val-Tyr-AMC, is used to measure the proteasome activity in intact Jurkat, MCF-7 and PC-3 cells, which is inhibitable by co-incubation with EGCG (FIG. 16C). A similar assay is performed to measure potency and selectivity of EGCG (vs. EGC) or ECG (vs. EC) in the selected cell lines. […] After that, medium is collected and the liberated AMCs in the medium are measured by fluorometer to measure in vivo potency and selectivity of tea polyphenols.

O=C(O[C@@H]1Cc2c(O)cc(O)cc2O[C@@H]1c1cc(O)c(O)c(O)c1)c1cc(O)c(O)c(O)c1 [EGCG, (−)-epigallocatechin-3-gallate]
p27 levels in tumors (p27 in MCF-7 tumors): Increased p27 levels
inhibition of trypsin-like activity in living Jurkat T cells (in words) [1]: does not significantly inhibit
effect on proteasomal trypsin-like activity (in words) [2]: does not affect
increase in G1 population [3]: ~25%
inhibition of proteasomal PGPH activity (in words) [4]: potently inhibits
increase in G1 population ([5]; 12 h): 21%
increase in G1 population ([5]; 36 h): 33%
decrease in G1 population (normal human WI-38 cells; 12 h): 22%
increase in G2/M population (normal human WI-38 cells; 12 h): 6%
increase in S population (normal human WI-38 cells; 12 h): 16%
increase in G1 population (normal human WI-38 cells; 36 h): 22%
inhibition of chymotrypsin-like activity in living PC-3 cells (in words) [6]: inhibitable; also recorded: inhibits
